Legend:
Assay in all cases: selective drug sensitivity score (sDSS, relative to normal bone marrow) (sDSS (score)); higher = more potent and effective on the cell line relative to normal bone marrow cells
Conditions in all cases: 72 h
[1] = test system: 697
[2] = test system: COG-LL-317
[3] = test system: COG-LL-355h
[4] = test system: COG-LL-332h
[5] = test system: TANOUE
[6] = test system: KARPAS-45
[7] = test system: ALL-SIL
[8] = test system: SEM cells
[9] = test system: TMD5
[10] = test system: MOLT-4
[11] = test system: PEER
[12] = test system: LC4-1
[13] = test system: DND-41
[14] = test system: NALL-1
[15] = test system: MHH-CALL-4
[16] = test system: MOLT-14
[17] = test system: KOPN-8
[18] = test system: KASUMI-2
[19] = test system: P12-ICHIKAWA
[20] = test system: HPB-ALL
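Note: ALL cell lines in 384-well plates, five doses spanning 10,000-fold, each plate scaled between vehicle and 100 µmol/L benzalkonium chloride controls, sDSS an adapted area-under-curve metric.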

Row | SMILES | selective drug sensitivity score [1] | selective drug sensitivity score [2] | selective drug sensitivity score [3] | selective drug sensitivity score [4] | selective drug sensitivity score [5] | selective drug sensitivity score [6] | selective drug sensitivity score [7] | selective drug sensitivity score [8] | selective drug sensitivity score [9] | selective drug sensitivity score [10] | selective drug sensitivity score [11] | selective drug sensitivity score [12] | selective drug sensitivity score [13] | selective drug sensitivity score [14] | selective drug sensitivity score [15] | selective drug sensitivity score [16] | selective drug sensitivity score [17] | selective drug sensitivity score [18] | selective drug sensitivity score [19] | selective drug sensitivity score [20]
1 | CC(=O)[C@]1(O)Cc2c(O)c3c(c(O)c2[C@@H](O[C@H]2C[C@H](N)[C@H](O)[C@H](C)O2)C1)C(=O)c1ccccc1C3=O [Idarubicin] (top concentration 1000 nM) | 8.84 | 13.2 | 3.14 | 10 | -12.6 | -2.36 | 4.64 | 6.74 | 1.94 | 7.74 | -4.86 | 4.04 | 0.34 | -3.66 | 7.64 | 10.5 | 8.74 | 11.5 | 8.24 | 3.14
2 | COc1cc2nccc(Oc3ccc(NC(=O)NC4CC4)c(Cl)c3)c2cc1C(N)=O [Lenvatinib] (top concentration 2500 nM) | 2.16 | -0.24 | -0.24 | 1.66 | -0.24 | 0.16 | 5.56 | 0.36 | 0.66 | 0.36 | 2.26 | -0.24 | -0.24 | -0.24 | -0.24 | -0.14 | 0.86 | -0.14 | -0.24 | -0.24
3 | N#Cc1ccc(C(c2ccc(C#N)cc2)n2cncn2)cc1 [Letrozole] (top concentration 10000 nM) | -0.04 | -0.04 | -0.04 | -0.04 | 1.16 | -0.04 | -0.04 | -0.04 | -0.04 | -0.04 | -0.04 | -0.04 | 1.06 | -0.04 | -0.04 | -0.04 | -0.04 | 0.76 | -0.04 | -0.04
4 | CCNCCS(=O)(=O)NC[C@@]1(c2ccccc2)SC(NC(=O)C(C)(C)C)=NN1C(=O)C(C)(C)C [Litronesib] (top concentration 1000 nM) | 20.9 | 19.5 | 4.44 | 22.1 | -7.36 | 21.9 | 19.2 | 20.5 | 9.64 | 13.8 | 21.4 | 19.8 | 8.64 | 10.9 | 8.54 | 20.7 | 20.6 | 18.9 | 18.5 | 19.7
5 | CC[C@H](C)C(=O)O[C@H]1C[C@@H](C)C=C2C=C[C@H](C)[C@H](CC[C@@H]3C[C@@H](O)CC(=O)O3)[C@H]21 [Lovastatin] (top concentration 10000 nM) | 0.1 | 3.6 | 0 | 0.1 | -0.1 | 3 | 0.9 | 5 | -0.1 | -0.1 | 1.2 | 0.8 | -0.1 | -0.1 | -0.1 | -0.1 | 4.3 | -0.1 | 1.4 | -0.1
6 | Cn1cc(-c2cnn3c(N)c(Br)c([C@@H]4CCCNC4)nc23)cn1 [MK-8776] (top concentration 2500 nM) | 1.54 | 6.14 | 0.54 | 0.34 | -1.46 | 0.34 | 2.04 | 2.64 | -1.46 | -1.46 | -0.26 | 0.54 | 3.84 | -1.46 | -0.46 | -1.26 | -0.46 | -1.46 | -0.36 | -1.46
7 | Cc1cnc(-c2ccccc2C(C)C)nc1NCc1ccc(-n2ccnn2)cc1 [ML323] (top concentration 10000 nM) | 3.54 | 1.04 | 2.04 | 2.04 | 1.44 | 4.64 | 2.64 | 1.14 | -0.26 | 1.34 | 4.24 | 0.54 | 1.34 | 0.14 | -0.36 | 1.94 | 1.14 | 0.14 | 1.74 | 0.64
8 | O=C(CCNC(=O)c1ccc(OC(F)(F)F)cc1)N[C@@H]1CCCc2ccccc21 [ML390] (top concentration 50000 nM) | 16.4 | 16.8 | 8.6 | 16.1 | 3.5 | 7.1 | 2 | 10.8 | -1.2 | 15.2 | 5.5 | 7.4 | 5.4 | -1.2 | 1.8 | 16.6 | 22.3 | 2.9 | 18.5 | 6.5
9 | CN(C)C(=N)NC(=N)N [Metformin] (top concentration 100000 nM) | -0.02 | -0.02 | -0.02 | -0.02 | -0.02 | -0.02 | -0.02 | -0.02 | -0.02 | -0.02 | -0.02 | -0.02 | 0.08 | -0.02 | -0.02 | -0.02 | -0.02 | -0.02 | -0.02 | -0.02
